US11312758B2, “Peptides with vasodilatory and/or diuretic functions” (National University of Singapore, priority 2016, dated 2022)
“And” between values parts separate entries of the source, which are not always exact repeats. Identical values can stand only once. Positions of bridges follow the written chain, without caps; N, C: chain ends. Residues, ends and D or L forms follow the SMILES beside them.

Assays:
[1] = tested on: anesthetized male SD rats; test: In-vivo activity assay: peptide infusion in anesthetized rats (MAP, HR, PP, urine flow); design: species or system rat
Method: Male Sprague-Dawley (SD) rats (220-280 g) were obtained from Invivos, Singapore. Animals were acclimatized in the Animal Holding unit, NUS for 3 days before the experiment. The experiments were conducted under the guidance and approval of Institutional Animal Care and Use Committee, NUS (041/12).
The experiments were performed as described in Sridharan et al., [Biochem J 469 (2): 255-66 (2015)]. In brief, animals were anesthetized with sodium pentobarbital (60-70 mg/kg) and catheters were inserted in femoral artery, vein and urinary bladder. The body temperature of the animals was maintained using a thermostatic heat pad at 37° C. Continuous infusions (2 ml/h) of 0.2% BSA saline (with or without peptide) was administered through the femoral vein while a pressure transducer attached to the femoral artery recorded on-line changes in mean arterial pressure (MAP), heart rate (HR) and pulse pressure (PP). Urine was collected and the volume was measured after every 10 min. Experiments encompassed control (2×10 min), experimental (1×10 min) and recovery (4×10 min) periods. All animals were euthanized at the end of the experiment in carbon-di-oxide chambers.

rat NPR-A [2] = molecular target: T1, rat NPR-A (Rattus norvegicus, UniProt P18910); test: Whole cell cGMP assay, 30 min end-point dose-response in CHO-K1 cells transiently expressing NPR-A; format: cell-based; details: for NPR-A activation potency, Ratio compared wild type NPs: negative = more potent than wild type
T1 construct: expressed in transfected cells; host or cells: CHO-K1
T1 sequence (P18910 29-1057): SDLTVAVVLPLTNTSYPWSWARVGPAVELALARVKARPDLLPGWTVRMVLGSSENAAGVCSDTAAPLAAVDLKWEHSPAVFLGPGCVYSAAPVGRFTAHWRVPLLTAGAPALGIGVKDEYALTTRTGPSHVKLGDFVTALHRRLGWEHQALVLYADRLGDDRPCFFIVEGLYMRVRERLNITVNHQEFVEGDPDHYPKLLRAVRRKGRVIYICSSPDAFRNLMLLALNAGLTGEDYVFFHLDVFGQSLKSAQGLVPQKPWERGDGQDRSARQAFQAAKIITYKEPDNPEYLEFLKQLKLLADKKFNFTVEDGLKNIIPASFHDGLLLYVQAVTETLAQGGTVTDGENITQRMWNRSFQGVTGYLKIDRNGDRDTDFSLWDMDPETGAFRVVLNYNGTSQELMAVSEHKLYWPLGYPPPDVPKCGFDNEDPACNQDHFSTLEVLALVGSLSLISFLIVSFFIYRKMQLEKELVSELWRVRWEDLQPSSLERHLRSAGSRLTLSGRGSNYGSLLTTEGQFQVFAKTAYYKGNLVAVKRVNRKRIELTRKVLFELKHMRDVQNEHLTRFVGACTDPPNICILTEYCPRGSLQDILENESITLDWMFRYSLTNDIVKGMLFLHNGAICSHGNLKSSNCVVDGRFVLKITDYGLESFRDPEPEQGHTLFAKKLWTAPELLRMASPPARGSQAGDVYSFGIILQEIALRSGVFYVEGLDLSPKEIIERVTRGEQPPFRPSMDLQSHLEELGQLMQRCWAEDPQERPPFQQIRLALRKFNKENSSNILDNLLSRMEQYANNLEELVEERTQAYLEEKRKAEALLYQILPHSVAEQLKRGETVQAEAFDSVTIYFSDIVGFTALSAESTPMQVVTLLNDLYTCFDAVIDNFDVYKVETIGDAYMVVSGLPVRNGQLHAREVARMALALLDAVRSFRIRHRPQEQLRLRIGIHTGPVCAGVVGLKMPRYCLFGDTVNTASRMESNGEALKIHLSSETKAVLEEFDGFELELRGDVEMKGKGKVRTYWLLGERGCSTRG
Method: (§1) The experiments were performed as described in Sridharan et al., [Biochem J 469 (2): 255-66 (2015)]. Dulbecco's modified Eagle's medium supplemented with 10% fetal bovine serum, 100 U/ml penicillin and 100 μg/ml streptomycin and 2 mM glutamine was used to grow CHO-K1 cells in a humidified incubator at 37° C. with 5% CO2. The cells were maintained by sub-culturing using 0.5% trypsin every three days. Cells (1×10^5) were seeded per well in 24-well plate and grown for 16 h. Cells in each well were transfected with 0.8 μg of plasmid encoding rat NPR-A using 2 μl of Lipofectamine™ 2000 transfection reagent. Cells were treated with the peptides 24 h after transfection.
NPR-A transfected CHO-K1 cells were treated with varying concentrations of peptides (10 nM to 10 μM dissolved in basal media containing 0.5 mM IBMX) for 30 min. The end-point accumulation of cGMP was measured after cell-lysis with 200 μl of 0.1 N HCl using Enzo life sciences cGMP ELISA kit (manufacturer's protocol).

rat NPR-A [3] = molecular target: T1, rat NPR-A; test: Time-chase study of cGMP accumulation (NPR-A activation kinetics) at EC50 concentration of peptide; format: cell-based
Method: as §1
Time-chase study was performed by treating the cells with EC50 concentration of the peptides. The reactions were terminated at the indicated time-points (0, 2, 5, 10, 20 and 30 min) by treating the cells with 0.1 N HCl. The cGMP concentration in the cell lysate was measured using cGMP ELISA kit (Enzo life sciences).

CC[C@H](C)[C@@H]1NC(=O)[C@H](CCCNC(=N)N)NC(=O)[C@H](CC(=O)O)NC(=O)[C@H](CCSC)NC(=O)[C@H](CCCNC(=N)N)NC(=O)CNC(=O)CNC(=O)[C@H](Cc2ccccc2)NC(=O)[C@@H](NC(=O)[C@H](CO)NC(=O)[C@H](CO)NC(=O)[C@H](CCCNC(=N)N)NC(=O)[C@H](CCCNC(=N)N)NC(=O)[C@H](CC(C)C)NC(=O)[C@@H](N)CO)CSSC[C@@H](C(=O)N[C@@H](CC(N)=O)C(=O)N[C@@H](CO)C(=O)N[C@@H](Cc2ccccc2)C(=O)N[C@@H](CCCNC(=N)N)C(=O)N[C@@H](Cc2ccc(O)cc2)C(=O)O)NC(=O)CNC(=O)[C@H](CC(C)C)NC(=O)CNC(=O)[C@H](CO)NC(=O)[C@H](CCC(N)=O)NC(=O)[C@H](C)NC(=O)CNC1=O [ANP, reference compound]
Heart rate Peak response ([1]; 0.08 nmol/kg/min infusion): −7.8 ± 2.4 BPM
Pulse pressure Peak response ([1]; 0.08 nmol/kg/min infusion): −2.1 ± 1.5 mmHg
Urine flow rate Peak Time ([1]; 0.08 nmol/kg/min infusion): 20 min
Urine flow rate Peak response ([1]; 0.08 nmol/kg/min infusion): 5.4 ± 1.4 µL/min
Mean arterial pressure Peak response ([1]; 0.08 nmol/kg/min infusion, anesthetized rats): −1.6 ± 1.5 mmHg
HR Rate of change per unit change in MAP ([1]; 0.2 nmol/kg/min infusion): 5.6
Heart rate Peak time ([1]; 0.2 nmol/kg/min infusion): 30 min
Mean arterial pressure Peak response ([1]; 0.2 nmol/kg/min infusion): −10.1±0.8 mmHg and −10.1 ± 1.9 mmHg
Mean arterial pressure Peak time ([1]; 0.2 nmol/kg/min infusion): 30 min
PP Rate of change per unit change in MAP ([1]; 0.2 nmol/kg/min infusion): 0.5
Pulse pressure Peak response ([1]; 0.2 nmol/kg/min infusion): −7.7±3.9 mmHg and −7.7±1.8 mmHg
Pulse pressure Peak time ([1]; 0.2 nmol/kg/min infusion): 40 min
Urine flow rate Peak Time ([1]; 0.2 nmol/kg/min infusion): 20 min
Urine flow rate Peak response ([1]; 0.2 nmol/kg/min infusion): 8.8 ± 1.3 µL/min

CC[C@H](C)[C@@H]1NC(=O)[C@H](CCCNC(=N)N)NC(=O)[C@H](CC(=O)O)NC(=O)[C@H](CCSC)NC(=O)[C@H](CCCNC(=N)N)NC(=O)CNC(=O)[C@H](CC(=O)O)NC(=O)[C@H](Cc2ccccc2)NC(=O)[C@@H](NC(=O)[C@H](CO)NC(=O)[C@H](CO)NC(=O)[C@H](CCCNC(=N)N)NC(=O)[C@H](CCCNC(=N)N)NC(=O)[C@H](CC(C)C)NC(=O)[C@@H](N)CO)CSSC[C@@H](C(=O)N[C@@H](CC(N)=O)C(=O)N[C@@H](CO)C(=O)N[C@@H](Cc2ccccc2)C(=O)N[C@@H](CCCNC(=N)N)C(=O)N[C@@H](Cc2ccc(O)cc2)C(=O)O)NC(=O)CNC(=O)[C@H](CC(C)C)NC(=O)[C@H](CC(=O)O)NC(=O)[C@H](CO)NC(=O)[C@H](CCC(N)=O)NC(=O)[C@H](C)NC(=O)CNC1=O [^DGDANP] (H-SLRRSSCFDGRMDRIGAQSDLGCNSFRY-OH; disulfide 7-23; N-terminus assumed)
HR Rate of change per unit change in MAP ([1]; 2 nmol/kg/min infusion): 4.4
PP Rate of change per unit change in MAP ([1]; 2 nmol/kg/min infusion): 0.5
delay of the peak of diuresis ([1]; 2 nmol/kg/min infusion): 10 min
Mean arterial pressure Peak response ([1]; 2.0 nmol/kg/min infusion): −4.8±2.3 mmHg and −4.8 ± 2.9 mmHg
Urine flow rate Peak Time ([1]; 2.0 nmol/kg/min infusion): 30 min
Urine flow rate Peak response ([1]; 2.0 nmol/kg/min infusion): 7.9 ± 2.1 µL/min and 7.9 ± 2.0 µL/min
NPR-A activation potency, Ratio compared ANP (rat NPR-A [2]): 7.8
fold drop in activity compared to ANP (rat NPR-A [2]; cGMP response): 8 fold
NPR-A activation potency, Ratio compared wild type NPs (rat NPR-A [2]): 7.8
Rate of generation of cGMP, Ratio compared ANP (rat NPR-A [3]): 56.9
Rate of generation of cGMP, Ratio compared wild type NPs (rat NPR-A [3]): 56.9
times slower activation kinetics compared to the wild type (ANP) (rat NPR-A [3]): 7.8 times
Rate of generation of cGMP (rat NPR-A [3]; EC50 concentration of peptide): 0.14 pmol cGMP/pmol peptide
time of peak / maximum accumulation of cGMP (rat NPR-A [3]; EC50 concentration of peptide): 10 min

CC[C@H](C)[C@@H]1NC(=O)[C@H](CC(=O)O)NC(=O)[C@H](CO)NC(=O)[C@H]([C@@H](C)O)NC(=O)[C@H](Cc2c[nH]cn2)NC(=O)[C@H](CO)NC(=O)[C@H]([C@@H](C)CC)NC(=O)[C@H](CCCNC(=N)N)NC(=O)[C@H](CC(=O)O)NC(=O)[C@H]([C@@H](C)CC)NC(=O)[C@H](CCCNC(=N)N)NC(=O)[C@H](CCCNC(=N)N)NC(=O)CNC(=O)[C@H](Cc2ccccc2)NC(=O)[C@@H](NC(=O)[C@H](CO)NC(=O)[C@@H](NC(=O)[C@H](CC(C)C)NC(=O)[C@H](CC(C)C)NC(=O)CN)[C@@H](C)CC)CSSC[C@@H](C(=O)N[C@@H](CCCNC(=N)N)C(=O)N[C@@H](Cc2c[nH]cn2)C(=O)O)NC(=O)CNC1=O [^GRDK-Ring] (H-GLLISCFGRRIDRISHTSDIGCRH-OH; disulfide 6-22; N-terminus and C-terminus assumed)
HR Rate of change per unit change in MAP ([1]; 2 nmol/kg/min infusion): 2.82
PP Rate of change per unit change in MAP ([1]; 2 nmol/kg/min infusion): 0.7
Heart rate Peak response ([1]; 2.0 nmol/kg/min infusion): −44.8±20.2 BPM and −44.8 ± 20.1 BPM
Heart rate Peak time ([1]; 2.0 nmol/kg/min infusion): 30 min
Mean arterial pressure Peak response ([1]; 2.0 nmol/kg/min infusion): −11.3 ± 4.3 mmHg
Mean arterial pressure Peak time ([1]; 2.0 nmol/kg/min infusion): 30 min
Pulse pressure Peak time ([1]; 2.0 nmol/kg/min infusion): 20 min
Urine flow rate Peak response ([1]; 2.0 nmol/kg/min infusion): <2 µL/min
NPR-A activation potency, Ratio compared ANP (rat NPR-A [2]): 2.9
fold higher potency compared to K-Ring (rat NPR-A [2]; cGMP response): 5 fold
NPR-A activation potency, Ratio compared wild type NPs (rat NPR-A [2]): −4.8
Rate of generation of cGMP, Ratio compared ANP (rat NPR-A [3]): 70.5
Rate of generation of cGMP, Ratio compared wild type NPs (rat NPR-A [3]): 5.0
Rate of generation of cGMP (rat NPR-A [3]; EC50 concentration of peptide): 0.113 pmol cGMP/pmol peptide
rate of generation of cGMP compared to K-Ring (rat NPR-A [3]; EC50 concentration of peptide): slightly increased rate of cGMP production
time of peak / maximum accumulation of cGMP (rat NPR-A [3]; EC50 concentration of peptide): 10 min
